Values after ≈ are worked out from the molar mass of the structure shown.
Each compound was assayed on Staphylococcus aureus (assay: Minimum inhibitory concentration against methicillin-resistant Staphylococcus aureus).
Assay type: functional
Compound `CC1=C2OC=C(C(F)(F)F)c3ccc(C)c(c32)C(=O)C1=O` has an MIC50 of 16 µg/mL (≈ 54.4 µM) and an MIC90 of over 32 µg/mL.
Work on `CC1=C2OCCc3ccc(C)c(c32)C(=O)C1=O` yielded an MIC50 of 16 µg/mL (≈ 70.1 µM) and an MIC90 of 16 µg/mL (≈ 70.1 µM).
`CC1=COc2c(C)cc([N+](=O)[O-])c3c(C)ccc1c23` showed an MIC50 of over 32 µg/mL and an MIC90 of over 32 µg/mL.
`COC1=CC(=O)C(=O)C=C1C` showed an MIC50 of over 32 µg/mL and an MIC90 of over 32 µg/mL.
For `CC1=COc2c(C)ccc3c(C)ccc1c23`, the MIC50 was over 32 µg/mL and the MIC90 was over 32 µg/mL.
For `CCC1(O)COC2=C(C)C(=O)C(=O)c3c(C)ccc1c32` (configuration not stated), the MIC50 was 16 µg/mL (≈ 58.8 µM) and the MIC90 was 16 µg/mL (≈ 58.8 µM).
With `CC1=C2OC=Cc3ccc(C)c(c32)C(=O)C1=O` the MIC50 was 8 µg/mL (≈ 35.4 µM) and the MIC90 was 8 µg/mL (≈ 35.4 µM).
For `CCC1COC2=C(C)C(=O)C(=O)c3c(C)ccc1c32` (configuration not stated), the MIC50 was 32 µg/mL (≈ 125 µM) and the MIC90 was 32 µg/mL (≈ 125 µM).
For `CC1=C2OC=C(C(C)C)c3ccc(C)c(c32)C(=O)C1=O`, the MIC50 was 4 µg/mL (≈ 14.9 µM) and the MIC90 was 4 µg/mL (≈ 14.9 µM).
For `CCOC(=O)CC1COC2=C(C)C(=O)C(=O)c3c(C)ccc1c32` (configuration not stated), the MIC50 was 16 µg/mL (≈ 50.9 µM) and the MIC90 was 32 µg/mL (≈ 102 µM).
For `C=CC1=COC2=C(C)C(=O)C(=O)c3c(C)ccc1c32`, the MIC50 was over 32 µg/mL and the MIC90 was over 32 µg/mL.
For `CCC1=COC2=C(C)C(=O)C(=O)c3c(C)ccc1c32`, the MIC50 was 4 µg/mL (≈ 15.7 µM) and the MIC90 was 4 µg/mL (≈ 15.7 µM).
In the case of `CC1=C2OC=C(C#N)c3ccc(C)c(c32)C(=O)C1=O`, the MIC50 is reported as 8 µg/mL (≈ 31.8 µM) and the MIC90 is reported as 16 µg/mL (≈ 63.7 µM).
For `CCCCC1=COC2=C(C)C(=O)C(=O)c3c(C)ccc1c32`, the MIC50 was 8 µg/mL (≈ 28.3 µM) and the MIC90 was 8 µg/mL (≈ 28.3 µM).
`CC1=C2OCC(CC(=O)O)c3ccc(C)c(c32)C(=O)C1=O` (configuration not stated) gave an MIC50 of over 32 µg/mL and an MIC90 of over 32 µg/mL.
Compound `CC1=C2OC=C(CCO)c3ccc(C)c(c32)C(=O)C1=O` has an MIC50 of over 32 µg/mL and an MIC90 of over 32 µg/mL.
`CC1=C2OCC(C)(O)c3ccc(C)c(c32)C(=O)C1=O` (configuration not stated) showed an MIC50 of 16 µg/mL (≈ 61.9 µM) and an MIC90 of over 32 µg/mL.
For `COC1=C(C)C(=O)C(=O)c2c(C)cccc21`, the MIC50 was over 32 µg/mL and the MIC90 was over 32 µg/mL.
In the case of `CC1=C2OCC(Cl)(C(F)(F)F)c3ccc(C)c(c32)C(=O)C1=O` (configuration not stated), the MIC50 is reported as 16 µg/mL (≈ 48.4 µM) and the MIC90 is reported as 16 µg/mL (≈ 48.4 µM).
`CC1=C2OCC(C)c3ccc(C)c(c32)C(=O)C1=O` (configuration not stated) [MANSONONE E] gave an MIC50 of 8 µg/mL (≈ 33 µM) and an MIC90 of 16 µg/mL (≈ 66 µM).
Compound `CN[C@H](CC(C)C)C(=O)N[C@H]1C(=O)N[C@@H](CC(N)=O)C(=O)N[C@H]2C(=O)N[C@H]3C(=O)N[C@H](C(=O)N[C@H](C(=O)O)c4cc(O)cc(O)c4-c4cc3ccc4O)[C@H](O)c3ccc(c(Cl)c3)Oc3cc2cc(c3O[C@@H]2O[C@H](CO)[C@@H](O)[C@H](O)[C@H]2O[C@H]2C[C@](C)(N)[C@H](O)[C@H](C)O2)Oc2ccc(cc2Cl)[C@H]1O` [VANCOMYCIN] has an MIC50 of 2 µg/mL (≈ 1.38 µM) and an MIC90 of 2 µg/mL (≈ 1.38 µM).

Source: ChEMBL document CHEMBL1137189, “Syntheses and anti-MRSA activities of the C3 analogs of mansonone F, a potent anti-bacterial sesquiterpenoid: insights into its structural requirements for anti-MRSA activity” (2004)
